The text below walks through data of PubChem BioAssay (NCI).

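Briefly, cells in 96-well plates were exposed to five compound concentrations for 48 h, and endpoints were estimated by linear interpolation. GI50 marks 50% less growth. The concentration for full growth arrest is given as TGI.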

Test systems include ACHN renal; CCRF-CEM leukemia; DU-145 prostate; HOP-92 NSCLC; LOX IMVI melanoma; M14 melanoma; MOLT-4 leukemia; NCI-H226 lung; OVCAR-3 ovarian; SNB-75 CNS.
Experiment in all cases: NCI tumour cell line growth inhibition, 48 h

`CCN(CC)CCNc1ccc2ncn3c4ccc(O)cc4c(=O)c1c23`: the TGI in the test with ACHN renal was determined as 2.89 µM; in the test on CCRF-CEM leukemia it was 16.5 µM; in the test on DU-145 prostate, 18.4 µM; with HOP-92 NSCLC it was 12.8 µM; with LOX IMVI melanoma, 3.15 µM; with M14 melanoma it was 9.05 µM. The TGI in the test on MOLT-4 leukemia came to 3.59 µM; in the test with NCI-H226 lung, 1.33 µM; in the test with OVCAR-3 ovarian it was 13.6 µM; with SNB-75 CNS, 11.6 µM.

With `CSCCC(C(=O)O)N(C)C` (centres undefined), the TGI in the test with ACHN renal, in the test with CCRF-CEM leukemia, in the test with DU-145 prostate, with HOP-92 NSCLC, in the test with LOX IMVI melanoma and in the test with M14 melanoma was greater than 100 µM throughout. Also, the TGI in the test on NCI-H226 lung, in the test on OVCAR-3 ovarian and in the test with SNB-75 CNS was greater than 100 µM in each case.

`C=C(C#N)C(=O)OCC(CC)CC.C=C(C#N)C(=O)OCC(CC)CC.CS(C)=O.CS(C)=O.Nc1c(N=Nc2ccc(-c3ccc(N=Nc4cc(S(=O)(=O)[O-])c5ccccc5c4N)cc3)cc2)cc(S(=O)(=O)[O-])c2ccccc12.[Pt+2]`: the GI50 in the test on CCRF-CEM leukemia was 30.7 µM; in the test on HOP-92 NSCLC it was 19.6 µM; with LOX IMVI melanoma, 35 µM; with MOLT-4 leukemia, 27.1 µM; with NCI-H226 lung it was 36.8 µM; in the test on OVCAR-3 ovarian, 25.9 µM. Moreover, the GI50 in the test with SNB-75 CNS was 65.4 µM. Moreover, the TGI with CCRF-CEM leukemia is greater than 100 µM; in the test with HOP-92 NSCLC it was 45.4 µM; with LOX IMVI melanoma it was greater than 84.9 µM; with MOLT-4 leukemia, greater than 91.3 µM; in the test with NCI-H226 lung, greater than 74.1 µM; in the test on OVCAR-3 ovarian, greater than 58 µM. In the test with SNB-75 CNS, this molecule gave a TGI greater than 100 µM.

Turning to `O=C1c2cc(O)c(O)cc2O[C@H](c2ccc(O)c(O)c2)[C@H]1O`, the TGI with ACHN renal, in the test with CCRF-CEM leukemia, in the test with DU-145 prostate, in the test on HOP-92 NSCLC, in the test on LOX IMVI melanoma and with M14 melanoma was greater than 100 µM each time. Moreover, the TGI in the test with MOLT-4 leukemia, with NCI-H226 lung, with OVCAR-3 ovarian and in the test with SNB-75 CNS was greater than 100 µM each time.

Take `CN1C(=O)CC(=O)N1/C(=C/c1ccccc1)c1ccccc1`: the TGI with ACHN renal is greater than 100 µM; with CCRF-CEM leukemia, 54.3 µM; with DU-145 prostate, greater than 100 µM; in the test on HOP-92 NSCLC it was greater than 100 µM; with LOX IMVI melanoma it was 31.2 µM; with M14 melanoma, greater than 100 µM. Also, the TGI in the test on MOLT-4 leukemia is 55.5 µM; in the test on NCI-H226 lung, greater than 100 µM; with OVCAR-3 ovarian, greater than 100 µM; in the test with SNB-75 CNS, greater than 100 µM.

In the case of `O=C1c2cc3c(cc2-c2c1c1ccc(Cl)cc1c(=O)n2C[C@H](O)CO)OCO3`, the GI50 is 0.0199 µM with ACHN renal; less than 0.01 µM with CCRF-CEM leukemia; 0.0323 µM in the test on DU-145 prostate; 0.0122 µM in the test on LOX IMVI melanoma; 0.025 µM with M14 melanoma; less than 0.01 µM with MOLT-4 leukemia. Also, the GI50 is 0.0296 µM in the test on NCI-H226 lung, 0.0615 µM in the test with OVCAR-3 ovarian and 0.0245 µM in the test on SNB-75 CNS. In addition, the TGI with ACHN renal amounted to 0.111 µM; with CCRF-CEM leukemia, 24.2 µM; in the test on DU-145 prostate, 1.08 µM; in the test on LOX IMVI melanoma, 0.0781 µM; in the test with M14 melanoma it was 0.244 µM; in the test with MOLT-4 leukemia it was 12.4 µM. Also, the TGI was 0.165 µM with NCI-H226 lung, 0.316 µM with OVCAR-3 ovarian and 1.1 µM in the test with SNB-75 CNS.

Consider `O=c1[nH]c2[nH]c(=S)[nH]c(=S)c2[nH]1`, for which the TGI with ACHN renal, with HOP-92 NSCLC, in the test on LOX IMVI melanoma, with M14 melanoma, with MOLT-4 leukemia and in the test on NCI-H226 lung was greater than 100 µM in each case.

Consider `C=CCNC(=O)C(C)C1CCC2(C)C=CC(=O)C(C)=C2C1O` (centres undefined), for which the TGI with CCRF-CEM leukemia, in the test with HOP-92 NSCLC, in the test with LOX IMVI melanoma, with MOLT-4 leukemia, with NCI-H226 lung and in the test with OVCAR-3 ovarian was greater than 100 µM each time. This molecule also displayed a TGI in the test on SNB-75 CNS greater than 100 µM.

`COc1ccc2nc3cc(Cl)ccc3c(NC(C)CCCN(CCCl)CCCl)c2c1` (centres undefined): the TGI in the test with ACHN renal was found to be 3.17 µM; in the test with CCRF-CEM leukemia it was 1.12 µM; in the test with HOP-92 NSCLC it was 3.62 µM; with LOX IMVI melanoma it was 1.17 µM; in the test with M14 melanoma, 2.78 µM; in the test with MOLT-4 leukemia it was 0.344 µM. Moreover, the TGI with NCI-H226 lung came out at 3.44 µM; in the test on OVCAR-3 ovarian, 6.87 µM; with SNB-75 CNS, 8.98 µM.

Regarding `Oc1ccc(C(=C(Br)c2ccccc2)c2ccc(O)cc2)cc1`, the TGI with ACHN renal came out at 21.7 µM; with CCRF-CEM leukemia it was 32.3 µM; in the test on DU-145 prostate, 25.7 µM; in the test with HOP-92 NSCLC, 22.5 µM; in the test with LOX IMVI melanoma it was 17 µM; with M14 melanoma it was 15.3 µM. Moreover, the figures for the TGI with MOLT-4 leukemia, in the test with NCI-H226 lung and in the test on OVCAR-3 ovarian were 40.5 µM, 33 µM and 8.99 µM, respectively.

For `O=C1c2ccccc2C(=O)c2[nH]cnc21`, the TGI was greater than 100 µM in the test with ACHN renal; greater than 100 µM in the test on CCRF-CEM leukemia; greater than 100 µM with M14 melanoma; greater than 100 µM in the test with MOLT-4 leukemia; 93.3 µM in the test on NCI-H226 lung; 66.2 µM in the test with OVCAR-3 ovarian.

As to `O=C1C(Cl)N(c2ccccc2Cl)C1c1c[nH]c2ccccc12` (centres undefined), the TGI in the test with CCRF-CEM leukemia, in the test with HOP-92 NSCLC, with M14 melanoma, with MOLT-4 leukemia, in the test on OVCAR-3 ovarian and in the test with SNB-75 CNS was greater than 100 µM each time.
